Source: patent US20220088016A1, “CANCER TREATMENT USING MULTI-TARGETED KINASE INHIBITOR IN COMBINATION OF PROTEIN KINASE BIOMARKERS” (ZHEJIANG CROWNMAB BIOTECH CO. LTD., priority 2019, published 2022)

Tests used:
IRAK4 = IRAK4 (Homo sapiens, UniProt Q9NWZ3); assay: Kinase profiling; type: binding; conditions: read-out: % Ctrl @ 1000 nM
CDK9 = CDK9 (Homo sapiens, UniProt P50750); assay: Kinase profiling; type: binding; conditions: read-out: % Ctrl @ 1000 nM
CDK4-cyclinD1 = CDK4-cyclinD1 (Homo sapiens, UniProt P11802); assay: Kinase profiling; type: binding; conditions: read-out: % Ctrl @ 1000 nM
NEK5 = target: T1, NEK5 (Homo sapiens, UniProt Q6P3R8); assay: Kinase profiling; type: binding; conditions: read-out: % Ctrl @ 1000 nM
T1 construct: T7 phage fusion (said for most assays); made in house

EGFR (L858R, T790M) = EGFR (L858R, T790M) (Homo sapiens, UniProt P00533, L858R/T790M); assay: Kinase profiling; type: binding; conditions: read-out: % Ctrl @ 1000 nM
DRAK1 = DRAK1 (Homo sapiens, UniProt Q9UEE5); assay: Kinase profiling; type: binding; conditions: read-out: % Ctrl @ 1000 nM
GRK3 = GRK3 (Homo sapiens, UniProt P35626); assay: Kinase profiling; type: binding; conditions: read-out: % Ctrl @ 1000 nM
CDKL5 = CDKL5 (Homo sapiens, UniProt O76039); assay: Kinase profiling; type: binding; conditions: read-out: % Ctrl @ 1000 nM
FGFR4 = FGFR4 (Homo sapiens, UniProt P22455); assay: Kinase profiling; type: binding; conditions: read-out: % Ctrl @ 1000 nM
HCK = HCK (Homo sapiens, UniProt P08631); assay: Kinase profiling; type: binding; conditions: read-out: % Ctrl @ 1000 nM
PRKX = PRKX (Homo sapiens, UniProt P51817); assay: Kinase profiling; type: binding; conditions: read-out: % Ctrl @ 1000 nM
CDK4-cyclinD3 = CDK4-cyclinD3 (Homo sapiens, UniProt P11802); assay: Kinase profiling; type: binding; conditions: read-out: % Ctrl @ 1000 nM
CAMK4 = CAMK4 (Homo sapiens, UniProt Q16566); assay: Kinase profiling; type: binding; conditions: read-out: % Ctrl @ 1000 nM
CDK7 = CDK7 (Homo sapiens, UniProt P50613); assay: Kinase profiling; type: binding; conditions: read-out: % Ctrl @ 1000 nM
TLK1 = TLK1 (Homo sapiens, UniProt Q9UKI8); assay: Kinase profiling; type: binding; conditions: read-out: % Ctrl @ 1000 nM
TNNI3K = TNNI3K (Homo sapiens, UniProt Q59H18); assay: Kinase profiling; type: binding; conditions: read-out: % Ctrl @ 1000 nM
[1] = target: ABL1 (F317L)-nonphosphorylated (Homo sapiens, UniProt P00519, F317L); assay: Kinase profiling; type: binding; conditions: read-out: % Ctrl @ 1000 nM
PRKR = PRKR (Homo sapiens, UniProt P19525); assay: Kinase profiling; type: binding; conditions: read-out: % Ctrl @ 1000 nM
FLT4 = FLT4 (Homo sapiens, UniProt P35916); assay: Kinase profiling; type: binding; conditions: read-out: % Ctrl @ 1000 nM
MYO3B = target: T2, MYO3B (Homo sapiens, UniProt Q8WXR4); assay: Kinase profiling; type: binding; conditions: read-out: % Ctrl @ 1000 nM
T2 construct: T7 phage fusion (said for most assays); made in house

[2] = target: RSK3 (Kin.Dom.2-C-terminal) (Homo sapiens, UniProt Q15349); assay: Kinase profiling; type: binding; conditions: read-out: % Ctrl @ 1000 nM
TYRO3 = TYRO3 (Homo sapiens, UniProt Q06418); assay: Kinase profiling; type: binding; conditions: read-out: % Ctrl @ 1000 nM
VRK2 = VRK2 (Homo sapiens, UniProt Q86Y07); assay: Kinase profiling; type: binding; conditions: read-out: % Ctrl @ 1000 nM
PRKCD = PRKCD (Homo sapiens, UniProt Q05655); assay: Kinase profiling; type: binding; conditions: read-out: % Ctrl @ 1000 nM
YANK3 = YANK3 (Homo sapiens, UniProt Q86UX6); assay: Kinase profiling; type: binding; conditions: read-out: % Ctrl @ 1000 nM
AMPK-alpha2 = AMPK-alpha2 (Homo sapiens, UniProt P54646); assay: Kinase profiling; type: binding; conditions: read-out: % Ctrl @ 1000 nM
[3] = target: JAK1 (JH2domain-pseudokinase) (Homo sapiens, UniProt P23458); assay: Kinase profiling; type: binding; conditions: read-out: % Ctrl @ 1000 nM
JNK1 = JNK1 (Homo sapiens, UniProt P45983); assay: Kinase profiling; type: binding; conditions: read-out: % Ctrl @ 1000 nM
LTK = LTK (Homo sapiens, UniProt P29376); assay: Kinase profiling; type: binding; conditions: read-out: % Ctrl @ 1000 nM
ERBB4 = ERBB4 (Homo sapiens, UniProt Q15303); assay: Kinase profiling; type: binding; conditions: read-out: % Ctrl @ 1000 nM
BRAF = BRAF (Homo sapiens, UniProt P15056); assay: Kinase profiling; type: binding; conditions: read-out: % Ctrl @ 1000 nM
RIPK5 = RIPK5 (Homo sapiens, UniProt Q6XUX3); assay: Kinase profiling; type: binding; conditions: read-out: % Ctrl @ 1000 nM
[4] = target: ABL1 (Y253F)-phosphorylated (Homo sapiens, UniProt P00519, Y253F); assay: Kinase profiling; type: binding; conditions: read-out: % Ctrl @ 1000 nM
BaF3 hCSF1R cell line = assay: Proliferation of engineered BaF3 hCSF1R cell line (CTG assay); type: cell-based; conditions: Mus musculus, 72 h; engineered BaF3 hCSF1R; 3 days; CTG; read-out: IC50
Description: Two syngeneic cell lines M-NFS-60 and RAW264.7 and engineered BaF3 hCSFIR cell line were starved and then tested with CBT-102 and other test articles for 3 days in the temperature of 37° C., 5% CO2 and 95% humidity. The cell viability was then detected using CTG assay. The software of GraphPad Prism was used to calculate IC50.
CSF-1 dependent mouse myeloid M-NFS-60 cells were employed as target cells while a CSF-1 independent cell line Raw 264.7 was used as a negative control. In addition to CBT-102, the study also included 3 CSF-1R inhibitors: GW2580, BLZ945 and Pexidartinib.

PFPK5 (P.falciparum) = PFPK5 (P.falciparum) (Plasmodium falciparum, UniProt P61075); assay: Kinase profiling; type: binding; conditions: read-out: % Ctrl @ 1000 nM
CIT = CIT (Homo sapiens, UniProt O14578); assay: Kinase profiling; type: binding; conditions: read-out: % Ctrl @ 1000 nM

Chain of CDKL5 (O76039 whole entry): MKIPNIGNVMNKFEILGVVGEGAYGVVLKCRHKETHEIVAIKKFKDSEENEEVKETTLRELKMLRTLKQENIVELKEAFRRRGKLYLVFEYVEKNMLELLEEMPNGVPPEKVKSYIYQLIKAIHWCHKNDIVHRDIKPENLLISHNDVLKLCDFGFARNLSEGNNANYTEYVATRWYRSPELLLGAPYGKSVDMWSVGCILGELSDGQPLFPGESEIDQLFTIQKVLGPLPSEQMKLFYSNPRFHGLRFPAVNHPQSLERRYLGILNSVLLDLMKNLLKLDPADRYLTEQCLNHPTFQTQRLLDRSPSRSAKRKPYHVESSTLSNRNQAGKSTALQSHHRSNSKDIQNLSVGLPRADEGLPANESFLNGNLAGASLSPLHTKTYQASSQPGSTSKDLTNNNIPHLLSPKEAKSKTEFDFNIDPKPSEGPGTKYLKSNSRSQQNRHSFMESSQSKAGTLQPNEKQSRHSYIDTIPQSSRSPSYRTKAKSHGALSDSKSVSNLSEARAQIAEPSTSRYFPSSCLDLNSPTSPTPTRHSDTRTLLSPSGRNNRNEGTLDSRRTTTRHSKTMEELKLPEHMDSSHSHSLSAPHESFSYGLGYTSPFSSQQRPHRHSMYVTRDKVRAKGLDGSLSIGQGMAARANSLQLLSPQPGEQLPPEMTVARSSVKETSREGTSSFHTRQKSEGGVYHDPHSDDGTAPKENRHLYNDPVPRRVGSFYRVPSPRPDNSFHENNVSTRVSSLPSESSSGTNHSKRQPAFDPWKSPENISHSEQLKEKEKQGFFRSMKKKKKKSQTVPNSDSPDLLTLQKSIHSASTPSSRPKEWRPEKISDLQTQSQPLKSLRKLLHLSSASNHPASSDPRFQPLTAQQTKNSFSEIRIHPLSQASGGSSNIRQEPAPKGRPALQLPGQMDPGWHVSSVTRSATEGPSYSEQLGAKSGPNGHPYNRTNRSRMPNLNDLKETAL
T2 sequence (Q8WXR4 whole entry, the tested form may be a part): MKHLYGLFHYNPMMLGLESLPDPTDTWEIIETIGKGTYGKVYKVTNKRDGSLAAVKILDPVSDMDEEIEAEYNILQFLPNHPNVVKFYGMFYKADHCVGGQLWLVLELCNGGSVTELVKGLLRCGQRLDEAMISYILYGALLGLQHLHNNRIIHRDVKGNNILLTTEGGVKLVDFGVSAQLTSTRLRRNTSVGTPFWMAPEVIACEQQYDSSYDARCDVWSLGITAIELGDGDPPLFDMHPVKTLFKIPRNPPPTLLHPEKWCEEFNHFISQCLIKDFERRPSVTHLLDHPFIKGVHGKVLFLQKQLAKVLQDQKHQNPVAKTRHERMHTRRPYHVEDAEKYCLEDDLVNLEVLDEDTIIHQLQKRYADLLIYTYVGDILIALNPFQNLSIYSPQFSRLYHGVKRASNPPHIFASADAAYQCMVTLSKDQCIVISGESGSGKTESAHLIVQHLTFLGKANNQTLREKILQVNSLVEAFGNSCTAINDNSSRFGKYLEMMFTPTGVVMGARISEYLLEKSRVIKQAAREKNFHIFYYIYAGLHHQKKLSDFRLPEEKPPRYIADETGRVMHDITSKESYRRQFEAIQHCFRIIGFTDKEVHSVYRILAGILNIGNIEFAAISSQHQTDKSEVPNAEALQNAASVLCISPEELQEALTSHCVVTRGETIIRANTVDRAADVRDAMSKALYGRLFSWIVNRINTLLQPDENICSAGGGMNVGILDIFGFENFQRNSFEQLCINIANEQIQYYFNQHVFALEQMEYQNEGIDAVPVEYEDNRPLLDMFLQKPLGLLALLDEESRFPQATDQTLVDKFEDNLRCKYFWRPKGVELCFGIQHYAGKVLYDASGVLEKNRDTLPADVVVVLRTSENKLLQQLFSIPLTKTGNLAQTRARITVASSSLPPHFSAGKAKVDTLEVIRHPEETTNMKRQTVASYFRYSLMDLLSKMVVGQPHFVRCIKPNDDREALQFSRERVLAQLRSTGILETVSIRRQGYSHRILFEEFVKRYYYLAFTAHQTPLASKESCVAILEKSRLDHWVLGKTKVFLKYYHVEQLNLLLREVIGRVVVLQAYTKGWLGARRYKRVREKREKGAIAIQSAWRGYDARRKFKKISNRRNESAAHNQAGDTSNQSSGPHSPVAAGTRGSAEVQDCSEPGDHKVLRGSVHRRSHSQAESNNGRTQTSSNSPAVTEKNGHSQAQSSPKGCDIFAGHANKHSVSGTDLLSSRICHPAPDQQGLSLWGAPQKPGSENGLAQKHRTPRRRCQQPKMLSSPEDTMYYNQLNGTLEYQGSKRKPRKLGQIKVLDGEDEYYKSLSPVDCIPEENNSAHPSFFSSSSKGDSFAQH
Chain of GRK3 (P35626 whole entry): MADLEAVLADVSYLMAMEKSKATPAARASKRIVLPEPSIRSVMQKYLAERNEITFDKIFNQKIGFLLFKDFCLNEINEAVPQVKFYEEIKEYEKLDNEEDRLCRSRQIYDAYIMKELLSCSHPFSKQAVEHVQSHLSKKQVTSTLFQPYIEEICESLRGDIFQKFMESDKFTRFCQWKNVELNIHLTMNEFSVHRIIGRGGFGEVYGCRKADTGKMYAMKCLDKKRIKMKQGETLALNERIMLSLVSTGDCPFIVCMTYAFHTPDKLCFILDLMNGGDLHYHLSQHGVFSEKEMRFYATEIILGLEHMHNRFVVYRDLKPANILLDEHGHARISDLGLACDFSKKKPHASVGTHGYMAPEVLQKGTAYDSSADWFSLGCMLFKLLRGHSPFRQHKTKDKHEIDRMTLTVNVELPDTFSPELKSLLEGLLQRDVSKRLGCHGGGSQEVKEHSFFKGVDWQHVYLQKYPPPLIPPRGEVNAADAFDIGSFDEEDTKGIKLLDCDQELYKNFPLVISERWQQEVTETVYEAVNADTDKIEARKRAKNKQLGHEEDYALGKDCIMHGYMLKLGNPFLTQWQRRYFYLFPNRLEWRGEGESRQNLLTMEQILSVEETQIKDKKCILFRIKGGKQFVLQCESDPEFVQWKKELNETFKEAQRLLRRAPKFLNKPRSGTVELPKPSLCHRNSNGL
Chain of CAMK4 (Q16566 whole entry): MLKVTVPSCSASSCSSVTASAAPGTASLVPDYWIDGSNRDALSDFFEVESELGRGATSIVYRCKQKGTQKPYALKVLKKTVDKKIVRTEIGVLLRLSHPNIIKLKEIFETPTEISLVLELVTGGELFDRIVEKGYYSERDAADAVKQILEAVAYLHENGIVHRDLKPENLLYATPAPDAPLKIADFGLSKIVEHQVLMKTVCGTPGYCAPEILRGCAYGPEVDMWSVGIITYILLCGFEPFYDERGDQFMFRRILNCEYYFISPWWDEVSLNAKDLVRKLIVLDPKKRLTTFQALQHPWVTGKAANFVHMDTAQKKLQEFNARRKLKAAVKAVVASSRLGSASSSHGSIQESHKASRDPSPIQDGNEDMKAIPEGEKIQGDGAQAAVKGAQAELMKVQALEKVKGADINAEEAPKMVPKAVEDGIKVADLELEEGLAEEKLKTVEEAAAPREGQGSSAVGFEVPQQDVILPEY
Chain of JNK1 (P45983 whole entry): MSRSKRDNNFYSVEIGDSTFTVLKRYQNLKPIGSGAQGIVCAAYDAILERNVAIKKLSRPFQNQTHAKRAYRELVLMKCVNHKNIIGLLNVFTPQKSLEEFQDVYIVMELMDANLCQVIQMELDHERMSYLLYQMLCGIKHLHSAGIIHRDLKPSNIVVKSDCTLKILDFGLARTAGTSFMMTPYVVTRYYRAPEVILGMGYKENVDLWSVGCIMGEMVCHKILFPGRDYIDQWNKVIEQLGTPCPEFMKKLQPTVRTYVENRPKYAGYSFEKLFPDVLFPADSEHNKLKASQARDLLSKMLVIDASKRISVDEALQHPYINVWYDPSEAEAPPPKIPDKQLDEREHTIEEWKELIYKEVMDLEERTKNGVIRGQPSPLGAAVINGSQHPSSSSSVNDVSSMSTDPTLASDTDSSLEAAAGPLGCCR
Chain of RSK3 (Kin.Dom.2-C-terminal) (Q15349 415-672 limits assumed): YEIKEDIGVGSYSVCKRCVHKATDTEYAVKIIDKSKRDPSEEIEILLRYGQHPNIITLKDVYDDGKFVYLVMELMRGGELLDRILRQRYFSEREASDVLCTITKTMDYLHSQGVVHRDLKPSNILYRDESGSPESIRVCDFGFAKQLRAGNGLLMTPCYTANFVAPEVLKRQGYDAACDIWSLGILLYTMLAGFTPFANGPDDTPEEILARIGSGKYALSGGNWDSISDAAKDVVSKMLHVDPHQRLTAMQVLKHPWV
Chain of BRAF (P15056 whole entry): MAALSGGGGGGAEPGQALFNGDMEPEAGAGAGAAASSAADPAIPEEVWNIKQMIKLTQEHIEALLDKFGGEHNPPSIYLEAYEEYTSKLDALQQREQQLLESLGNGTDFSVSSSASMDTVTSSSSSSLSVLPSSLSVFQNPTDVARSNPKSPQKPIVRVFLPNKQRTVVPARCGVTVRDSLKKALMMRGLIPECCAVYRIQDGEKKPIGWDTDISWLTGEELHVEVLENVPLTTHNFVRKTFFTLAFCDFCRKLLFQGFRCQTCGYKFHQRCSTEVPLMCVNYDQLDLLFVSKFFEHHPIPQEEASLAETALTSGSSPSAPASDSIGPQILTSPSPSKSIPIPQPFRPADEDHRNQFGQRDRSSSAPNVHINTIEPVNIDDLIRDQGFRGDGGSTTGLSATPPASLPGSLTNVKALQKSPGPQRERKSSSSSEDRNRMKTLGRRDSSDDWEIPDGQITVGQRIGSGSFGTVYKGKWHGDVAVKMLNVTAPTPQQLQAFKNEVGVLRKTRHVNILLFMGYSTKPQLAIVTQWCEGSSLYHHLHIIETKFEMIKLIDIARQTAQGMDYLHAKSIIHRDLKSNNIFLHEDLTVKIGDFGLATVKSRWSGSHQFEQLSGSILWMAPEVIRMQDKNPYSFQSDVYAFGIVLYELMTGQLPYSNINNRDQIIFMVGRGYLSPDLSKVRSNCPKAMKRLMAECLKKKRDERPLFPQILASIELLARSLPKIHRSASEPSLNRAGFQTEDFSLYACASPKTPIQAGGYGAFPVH

For Cc1cc(Oc2cc(NC(=O)C3CC3)ncn2)ccc1NC(=O)Nc1ccc(Cl)c(C(F)(F)F)c1 [CBT-102], the remaining activity at 1 µM (IRAK4) was 93%, the remaining activity at 1 µM (CDK9) was 46% and the remaining activity at 1 µM (CDK4-cyclinD1) was 99%. It also gave a remaining activity at 1 µM (NEK5) of 96%, a remaining activity at 1 µM (EGFR (L858R, T790M)) of 86% and a remaining activity at 1 µM (DRAK1) of 100%. The remaining activity at 1 µM (GRK3) was 97%, the remaining activity at 1 µM (CDKL5) was 97% and the remaining activity at 1 µM (FGFR4) was 92%. For the same compound, the remaining activity at 1 µM (HCK) was 54%, the remaining activity at 1 µM (PRKX) was 93% and the remaining activity at 1 µM (CDK4-cyclinD3) was 100%. The remaining activity at 1 µM (CAMK4) was 100%, the remaining activity at 1 µM (CDK7) was 25% and the remaining activity at 1 µM (TLK1) was 100%. It also gave a remaining activity at 1 µM (TNNI3K) of 31%, a remaining activity at 1 µM [1] of 16% and a remaining activity at 1 µM (PRKR) of 92%. It also gave a remaining activity at 1 µM (FLT4) of 0.05%, a remaining activity at 1 µM (MYO3B) of 90% and a remaining activity at 1 µM [2] of 92%. The remaining activity at 1 µM (TYRO3) was 82%, the remaining activity at 1 µM (VRK2) was 100% and the remaining activity at 1 µM (PRKCD) was 100%. The remaining activity at 1 µM (YANK3) was 88%, the remaining activity at 1 µM (AMPK-alpha2) was 100% and the remaining activity at 1 µM [3] was 100%. For the same compound, the remaining activity at 1 µM (JNK1) was 90%, the remaining activity at 1 µM (LTK) was 100% and the remaining activity at 1 µM (ERBB4) was 100%. It also gave a remaining activity at 1 µM (BRAF) of 6.1%, a remaining activity at 1 µM (RIPK5) of 100% and a remaining activity at 1 µM [4] of 57%. It also gave an IC50 (BaF3 hCSF1R cell line) of 588 nM, a remaining activity at 1 µM (PFPK5 (P.falciparum)) of 100% and a remaining activity at 1 µM (CIT) of 87%.
